What was measured:
Assay in all cases: PubChem AID 588490; call rule not given here
[1] = target: Protein-arginine deiminase type-1 (Homo sapiens) (UniProt Q9ULC6); settings: recombinant PAD1-4, BAEE citrulline colorimetric absorbance; PAD1
[2] = target: Protein-arginine deiminase type-2 (Homo sapiens) (UniProt Q9Y2J8); settings: recombinant PAD1-4, BAEE citrulline colorimetric absorbance; PAD2
[3] = target: Protein-arginine deiminase type-3 (Homo sapiens) (UniProt Q9ULW8); settings: recombinant PAD1-4, BAEE citrulline colorimetric absorbance; PAD3

Measured: IC50

Sequence of Protein-arginine deiminase type-2 (Homo sapiens) (Q9Y2J8 whole entry, looked up): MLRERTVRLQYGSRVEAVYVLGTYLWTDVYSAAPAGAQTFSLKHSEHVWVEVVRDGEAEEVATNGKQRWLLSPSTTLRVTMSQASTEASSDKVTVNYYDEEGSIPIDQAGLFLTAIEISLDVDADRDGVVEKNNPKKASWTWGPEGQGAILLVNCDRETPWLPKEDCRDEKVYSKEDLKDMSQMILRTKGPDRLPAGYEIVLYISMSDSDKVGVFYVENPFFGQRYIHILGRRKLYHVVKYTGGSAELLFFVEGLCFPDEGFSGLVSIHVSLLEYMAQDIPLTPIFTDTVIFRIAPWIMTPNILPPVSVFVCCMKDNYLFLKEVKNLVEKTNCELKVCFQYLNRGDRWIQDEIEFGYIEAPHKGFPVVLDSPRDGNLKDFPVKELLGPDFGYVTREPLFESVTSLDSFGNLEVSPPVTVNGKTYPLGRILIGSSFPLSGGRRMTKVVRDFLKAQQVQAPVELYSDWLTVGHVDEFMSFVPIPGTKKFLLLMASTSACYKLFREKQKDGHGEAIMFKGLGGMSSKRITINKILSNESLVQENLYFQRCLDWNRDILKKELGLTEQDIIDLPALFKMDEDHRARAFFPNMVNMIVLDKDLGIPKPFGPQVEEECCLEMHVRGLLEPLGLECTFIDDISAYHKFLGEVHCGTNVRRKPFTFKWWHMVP
Sequence of Protein-arginine deiminase type-3 (Homo sapiens) (Q9ULW8 whole entry, looked up): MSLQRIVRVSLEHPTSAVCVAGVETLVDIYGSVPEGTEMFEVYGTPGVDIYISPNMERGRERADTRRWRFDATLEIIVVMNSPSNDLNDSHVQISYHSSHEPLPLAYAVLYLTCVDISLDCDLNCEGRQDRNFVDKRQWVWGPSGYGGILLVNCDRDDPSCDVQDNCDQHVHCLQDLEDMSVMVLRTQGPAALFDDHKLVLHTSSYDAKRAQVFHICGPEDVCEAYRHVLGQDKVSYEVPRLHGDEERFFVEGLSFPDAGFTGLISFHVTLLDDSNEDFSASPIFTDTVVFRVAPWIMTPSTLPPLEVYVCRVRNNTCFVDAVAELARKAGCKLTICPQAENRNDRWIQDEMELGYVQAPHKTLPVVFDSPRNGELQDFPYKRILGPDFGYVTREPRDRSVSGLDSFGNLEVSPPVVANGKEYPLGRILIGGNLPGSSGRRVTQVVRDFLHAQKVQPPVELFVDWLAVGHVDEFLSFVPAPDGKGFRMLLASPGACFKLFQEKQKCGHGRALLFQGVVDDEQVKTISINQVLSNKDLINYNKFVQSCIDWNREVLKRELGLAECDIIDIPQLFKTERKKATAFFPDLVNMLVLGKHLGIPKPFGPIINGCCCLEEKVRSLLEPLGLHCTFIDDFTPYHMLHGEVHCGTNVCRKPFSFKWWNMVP
Sequence of Protein-arginine deiminase type-1 (Homo sapiens) (Q9ULC6 whole entry, looked up): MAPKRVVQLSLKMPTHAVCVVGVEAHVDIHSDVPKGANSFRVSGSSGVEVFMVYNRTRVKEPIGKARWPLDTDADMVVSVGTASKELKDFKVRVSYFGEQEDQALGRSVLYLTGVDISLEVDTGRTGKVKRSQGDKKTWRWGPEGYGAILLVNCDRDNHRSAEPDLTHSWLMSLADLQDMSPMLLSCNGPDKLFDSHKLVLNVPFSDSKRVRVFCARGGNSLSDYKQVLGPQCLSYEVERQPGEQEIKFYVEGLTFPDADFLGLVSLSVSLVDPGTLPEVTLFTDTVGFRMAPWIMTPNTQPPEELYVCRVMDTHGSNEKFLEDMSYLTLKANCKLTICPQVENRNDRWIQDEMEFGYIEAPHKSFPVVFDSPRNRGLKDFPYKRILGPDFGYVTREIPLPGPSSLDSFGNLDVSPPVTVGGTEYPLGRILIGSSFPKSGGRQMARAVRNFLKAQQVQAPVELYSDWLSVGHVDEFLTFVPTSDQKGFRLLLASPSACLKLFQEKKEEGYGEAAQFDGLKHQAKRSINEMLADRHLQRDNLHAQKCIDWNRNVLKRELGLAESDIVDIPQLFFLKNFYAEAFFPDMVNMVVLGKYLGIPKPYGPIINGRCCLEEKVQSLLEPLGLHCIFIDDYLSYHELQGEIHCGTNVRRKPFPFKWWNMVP

NC1=CC(=O)c2ccc(-c3cccc(C(=O)O)n3)nc2C1=O
active: [1] 70 nM | [2] 200 nM | [3] 710 nM
